This passage reports IC50 results from patent publication US6790971B1, “19-Nor-steroids” (Aventis Pharma S.A., priority 1989, dated 2004).

The assay has as its system MCF-7 mammary tumoral cells. Nature of the assay: Anti-proliferative activity upon the growth of MCF-7 cells (DNA measurement with DABA). The class given is cell-based. The note with it: 6 days, inhibition of the increase of DNA, read-out: concentration which inhibited the growth of MCF7 to an extent of 50% (IC50). As for the experimental part: B. Anti-proliferative activity of the products of the invention upon the growth of MCF-7 mammary tumoral cells.
The MCF-7 strains were kept under culture in FCS(1) medium at 37° C. under a humid atmosphere containing 5% CO2 and the cells at subconfluence were harvested by trypsination (0.05% trypsine, 0.02% EDTA), then rinsed by gentle centrifugation. A sample of the cells in suspension was counted on Malassez cell.
The cells, resuspended in FCS medium, were seeded at a rate of 30,000 cells per pit in multi-pit plates (24 pits of 2.5 cm^2) and twenty four hours after seeding (DO), the product to be tested was added to the medium in ethanolic solution (final concentration in ethanol: 0.1%), at a concentration of 10^−12 to 10^−6 M, the control pits receiving the same concentration of ethanol. The media were renewed every 48 hours and at the end of the experiment (D6), the medium was sucked off and the cells were immediately fixed with 150 microliters of methanol to estimate the DNA. The anti-proliferative activity of the products was evaluated by their capacity to inhibit the increase of DNA.
The DNA was measured by a fluorimetric method employing DABA (3,5-diaminobenzoic acid) (2): 150 microliters of DABA were added to each of the pits and the plates were then incubated for 45 minutes at 56° C., then 2 ml of 1 N HCl were added. The fluorescence was measured with the aid of a fluorimeter (length of the exiting wave: 408 nm, length of the emitting wave: 501 nm). The quantity of DNA per pit was evaluated with reference to a standard scale obtained by treating a standard DNA from calf thymus under the same conditions.
The concentration in nM which inhibited the growth of MCF7 to an extent of 50% (IC50) was determined in the manner indicated below:
(1) The fetal calf serum (FCS) culture medium was prepared as follows: MEM medium (minimal essential medium) to which were added:
Non-essential amino acids (GIBCO),
Peni-strepto (100 U/ml penicillin, 0.1 mg/ml streptomycin),
Fetal calf serum containing no steroids (10% final concentration).
(2) Puzas and Goodman, Analytical Biochemistry, Vol. 86, pp. 50, 1978.

`CCCCN(C)C(=O)CCCCCCCCCC[C@H]1C[C@]2(C)[C@@H](O)CC[C@H]2[C@@H]2CCc3cc(O)ccc3[C@@H]12` [Example 13, N-Butyl-3,17β-Dihydroxy-N-Methyl-11β-Δ^1,3,5(10)-Estratriene-Undecanamide]: the IC50 is 0.5 nM.

Consider `CC(C)N(C)C(=O)CCCCCCCCCC[C@H]1C[C@]2(C)[C@@H](O)CC[C@H]2[C@@H]2CCc3cc(O)ccc3[C@@H]12` [Example 16, 3,17β-dihydroxy-N-methyl-N-isopropyl-11β-Δ^1,3,5(10)-estratriene undecanamide], for which the IC50 was 0.02 nM.

Consider `CCCCN(C)C(=O)CCCCCCCCCCC[C@H]1C[C@]2(C)[C@@H](O)CC[C@H]2[C@@H]2CCc3cc(O)ccc3[C@@H]12` [Example 24, N-butyl-3,17β-dihydroxy-N-methyl-11β-Δ^1,3,5(10)-estratriene dodecanamide], for which the IC50 was 0.06 nM.

Take “N-butyl-3,17β-dihydroxy-N-methyl-19-nor-11β-Δ^1,3,5(10)-pregnatrien-20-yn undecanamide [Example 21]”: the IC50 was 0.02 nM.
